According to patent US6579899B1, “Composition for treatment of stress” (Massachusetts Institute of Technology, priority 1998, dated 2003):
Counter-ions that a name gives are not always drawn.

Key:
obese, stressed patients [1] = assay: CES-D test of current levels of emotional distress in patients; format: in vivo, human; details: for CES-D Mood Score: over the treatment period
Description: (§1) A subgroup of obese individuals is identified, which individuals describe themselves as being unable to control their eating and who attempt to continue on a weight-reducing diet when experiencing emotional distress. […]
(§2) Objective measurements of emotional distress are made in some patients using the CES-D (Center for […] Depression Form) test, which measures current levels of emotional distress (Radloff, et al., The CES-D Scale: A Self Report Depression Scale for Research in the General Population Applied Psychological Measurement 1: 385-401, 1977); and the POMS (Profile of Mood States test, that assesses tension, depression, anger and confusion (McNair, et al., Profile of Mood States Manual;San Diego: Educational and Industrial Testing Service, 1971); both of these references are hereby incorporated by reference in their entirety. These tests are also given monthly during the treatment period. At the same time, patients also complete questionnaires that ask the patients to rate their appetite and hunger, and also to rate their tendency to eat in response to a variety of emotional and stressful triggers. The patients are also weighed monthly.

obese, stressed patients [2] = assay: questionnaire rating appetite and hunger; format: in vivo, human; parameters: Appetite and Cravings: scale not given here
Description: as §1, §2

obese, stressed patients [3] = assay: questionnaire rating tendency to eat in response to emotional and stressful triggers; format: in vivo, human; parameters: Emotional Triggers: scale not given here; details: for emotional triggers score: over the treatment period
Description: as §1, §2

[4] = body weight in four month weight loss program; format: in vivo, human
Description: as §1, §2

[5] = system: patient experiencing stress induced symptoms; assay: treatment of patients with stress induced symptoms with serotonin precursors (Examples 16-23); format: in vivo, human
rats = details: Rowland et al.; cited from earlier work
[6] = patient seven, 45 then 60 mg/day, Month 1, baseline 20
[7] = patient seven, 45 then 60 mg/day, Month 2, baseline 20
[8] = patient seven, 45 then 60 mg/day, Month 3, baseline 20
[9] = patient seven, 45 then 60 mg/day, Month 4, baseline 20
[10] = Example 22, functional food, in conjunction with a stimulant of serotonin synthesis
[11] = Example 19, food based preparation, in conjunction with a serotonin agonist
[12] = Example 23, food based preparation
[13] = Example 20, in conjunction with a stimulant of serotonin synthesis

CC(CN(C)C)CN1c2ccccc2CCc2ccccc21 (stereo not shown) [trimipramine maleate]
Mood Scores CES-D (obese, stressed patients [1]; patient eight, 75 then 100 mg/day, Month 1, baseline 25): 22 | Mood Scores CES-D (obese, stressed patients [1]; patient eight, 75 then 100 mg/day, Month 2, baseline 25): 20 | Mood Scores CES-D (obese, stressed patients [1]; patient eight, 75 then 100 mg/day, Month 3, baseline 25): 15 | Mood Scores CES-D (obese, stressed patients [1]; patient eight, 75 then 100 mg/day, Month 4, baseline 25): 13 | Appetite and Cravings (obese, stressed patients [2]; patient eight, 75 then 100 mg/day, Month 1, baseline 11): 9 | Appetite and Cravings (obese, stressed patients [2]; patient eight, 75 then 100 mg/day, Month 2, baseline 11): 8 | Appetite and Cravings (obese, stressed patients [2]; patient eight, 75 then 100 mg/day, Month 3, baseline 11): 13 | Appetite and Cravings (obese, stressed patients [2]; patient eight, 75 then 100 mg/day, Month 4, baseline 11): 6 | Emotional Triggers (obese, stressed patients [3]; patient eight, 75 then 100 mg/day, Month 1, baseline 14): 8 | Emotional Triggers (obese, stressed patients [3]; patient eight, 75 then 100 mg/day, Month 2, baseline 14): 13 | Emotional Triggers (obese, stressed patients [3]; patient eight, 75 then 100 mg/day, Month 3, baseline 14): 6 | Emotional Triggers (obese, stressed patients [3]; patient eight, 75 then 100 mg/day, Month 4, baseline 14): 3 | weight at the end of 4 months ([4]; patient eight, 75 then 100 mg/day, starting weight 81.8 kg): 71.8 kg | weight at the end of 4 months ([4]; patient eight, 75 then 100 mg/day, starting weight 180 pounds): 158 pounds

NNCCc1ccccc1 [phenelzine sulfate]
Mood Scores CES-D (obese, stressed patients [1]; [6]): 22 | Mood Scores CES-D (obese, stressed patients [1]; [7]): 20 | Mood Scores CES-D (obese, stressed patients [1]; [8]): 15 | Mood Scores CES-D (obese, stressed patients [1]; [9]): 14 | Appetite and Cravings (obese, stressed patients [2]; patient seven, 45 then 60 mg/day, Month 1, baseline 19): 15 | Appetite and Cravings (obese, stressed patients [2]; patient seven, 45 then 60 mg/day, Month 2, baseline 19): 8 | Appetite and Cravings (obese, stressed patients [2]; patient seven, 45 then 60 mg/day, Month 3, baseline 19): 13 | Appetite and Cravings (obese, stressed patients [2]; patient seven, 45 then 60 mg/day, Month 4, baseline 19): 12 | Emotional Triggers (obese, stressed patients [3]; [6]): 8 | Emotional Triggers (obese, stressed patients [3]; [7]): 13 | Emotional Triggers (obese, stressed patients [3]; [8]): 6 | Emotional Triggers (obese, stressed patients [3]; [9]): 7 | weight at the end of 4 months ([4]; patient seven, 45 then 60 mg/day, starting weight 83.6 kg): 79.1 kg | weight at the end of 4 months ([4]; patient seven, 45 then 60 mg/day, starting weight 184 pounds): 174 pounds

CNCCC(Oc1ccc(C(F)(F)F)cc1)c1ccccc1 (stereo not shown) [fluoxetine hydrochloride]
Mood Scores CES-D (obese, stressed patients [1]; patient four, 20 rising to 80 mg/day, Month 1, baseline 15): 10 | Mood Scores CES-D (obese, stressed patients [1]; patient four, 20 rising to 80 mg/day, Month 2, baseline 15): 2 | Mood Scores CES-D (obese, stressed patients [1]; patient four, 20 rising to 80 mg/day, Month 3, baseline 15): 6 | Mood Scores CES-D (obese, stressed patients [1]; patient four, 20 rising to 80 mg/day, Month 4, baseline 15): 7 | Appetite and Cravings (obese, stressed patients [2]; patient four, 20 rising to 80 mg/day, Month 1, baseline 17): 6 | Appetite and Cravings (obese, stressed patients [2]; patient four, 20 rising to 80 mg/day, Month 2, baseline 17): 9 | Appetite and Cravings (obese, stressed patients [2]; patient four, 20 rising to 80 mg/day, Month 3, baseline 17): 3 | Appetite and Cravings (obese, stressed patients [2]; patient four, 20 rising to 80 mg/day, Month 4, baseline 17): 4 | Emotional Triggers (obese, stressed patients [3]; patient four, 20 rising to 80 mg/day, Month 1, baseline 31): 22 | Emotional Triggers (obese, stressed patients [3]; patient four, 20 rising to 80 mg/day, Month 2, baseline 31): 13 | Emotional Triggers (obese, stressed patients [3]; patient four, 20 rising to 80 mg/day, Month 3, baseline 31): 10 | Emotional Triggers (obese, stressed patients [3]; patient four, 20 rising to 80 mg/day, Month 4, baseline 31): 12 | weight at the end of 4 months ([4]; patient four, 20 rising to 80 mg/day, starting weight 83.2 kg): 78.2 kg | weight at the end of 4 months ([4]; patient four, 20 rising to 80 mg/day, starting weight 183 pounds): 172 pounds

N[C@@H](Cc1c[nH]c2ccccc12)C(=O)O [L-tryptophan]
stress induced fatigue ([5]; Example 18, functional food, in conjunction with a stimulant of serotonin synthesis): reduced fatigue | stress as indicated by CES-D Mood Score and emotional triggers score [5, 10]: reduced stress | stress induced neck and back pain [5, 10]: reduced back and neck pain

CN[C@H]1CC[C@@H](c2ccc(Cl)c(Cl)c2)c2ccccc21 [sertraline hydrochloride]
Mood Scores CES-D (obese, stressed patients [1]; patient nine, 100 mg/day in divided doses, Month 4, baseline 9): 1 | Mood Scores CES-D (obese, stressed patients [1]; patient two, 50 rising to 200 mg/day, Month 1, baseline 20): 16 | Mood Scores CES-D (obese, stressed patients [1]; patient two, 50 rising to 200 mg/day, Month 2, baseline 20): 16 | Mood Scores CES-D (obese, stressed patients [1]; patient two, 50 rising to 200 mg/day, Month 3, baseline 20): 10 | Mood Scores CES-D (obese, stressed patients [1]; patient two, 50 rising to 200 mg/day, Month 4, baseline 20): 12 | Appetite and Cravings (obese, stressed patients [2]; patient two, 50 rising to 200 mg/day, Month 1, baseline 15): 12 | Appetite and Cravings (obese, stressed patients [2]; patient two, 50 rising to 200 mg/day, Month 2, baseline 15): 5 | Appetite and Cravings (obese, stressed patients [2]; patient two, 50 rising to 200 mg/day, Month 3, baseline 15): 3 | Appetite and Cravings (obese, stressed patients [2]; patient two, 50 rising to 200 mg/day, Month 4, baseline 15): 1 | Emotional Triggers (obese, stressed patients [3]; patient nine, 100 mg/day in divided doses, Month 4, baseline 12): 3 | Emotional Triggers (obese, stressed patients [3]; patient two, 50 rising to 200 mg/day, Month 1, baseline 22): 12 | Emotional Triggers (obese, stressed patients [3]; patient two, 50 rising to 200 mg/day, Month 2, baseline 22): 13 | Emotional Triggers (obese, stressed patients [3]; patient two, 50 rising to 200 mg/day, Month 3, baseline 22): 5 | Emotional Triggers (obese, stressed patients [3]; patient two, 50 rising to 200 mg/day, Month 4, baseline 22): 3 | weight at the end of 4 months ([4]; patient nine, 100 mg/day in divided doses, starting weight 92.3 kg): 72.7 kg | weight at the end of 4 months ([4]; patient nine, 100 mg/day in divided doses, starting weight 203 pounds): 160 pounds | weight at the end of 4 months ([4]; patient two, 50 rising to 200 mg/day, starting weight 78.6 kg): 72.7 kg | weight at the end of 4 months ([4]; patient two, 50 rising to 200 mg/day, starting weight 173 pounds): 160 pounds

N[C@@H](Cc1c[nH]c2ccc(O)cc12)C(=O)O [L-5-hydroxytryptophan]
CES-D Mood Score (obese, stressed patients [1]; [11]): drops | CES-D Mood Score (obese, stressed patients [1]; [12]): drops | emotional triggers score (obese, stressed patients [3]; [11]): drops | emotional triggers score (obese, stressed patients [3]; [12]): drops | stress induced depression [5, 11]: reduced depression | stress [5, 13]: decreased stress | stress induced high blood pressure [5, 13]: lower blood pressure | stress induced inability to concentrate [5, 12]: improved concentration

CCNC(C)Cc1cccc(C(F)(F)F)c1 (racemic) [D,L-fenfluramine, N-ethyl-α-methyl-3-(trifluoro-methyl)benzeneethanamine]
Mood Scores CES-D (obese, stressed patients [1]; patient six, 30 mg/day, Month 1, baseline 5): 1 | Mood Scores CES-D (obese, stressed patients [1]; patient six, 30 mg/day, Month 2, baseline 5): 3 | Mood Scores CES-D (obese, stressed patients [1]; patient six, 30 mg/day, Month 3, baseline 5): 2 | Mood Scores CES-D (obese, stressed patients [1]; patient six, 30 mg/day, Month 4, baseline 5): 1 | Appetite and Cravings (obese, stressed patients [2]; patient six, 30 mg/day, Month 1, baseline 10): 2 | Appetite and Cravings (obese, stressed patients [2]; patient six, 30 mg/day, Month 2, baseline 10): 5 | Appetite and Cravings (obese, stressed patients [2]; patient six, 30 mg/day, Month 3, baseline 10): 5 | Appetite and Cravings (obese, stressed patients [2]; patient six, 30 mg/day, Month 4, baseline 10): 4 | Emotional Triggers (obese, stressed patients [3]; patient six, 30 mg/day, Month 1, baseline 23): 2 | Emotional Triggers (obese, stressed patients [3]; patient six, 30 mg/day, Month 2, baseline 23): 3 | Emotional Triggers (obese, stressed patients [3]; patient six, 30 mg/day, Month 3, baseline 23): 2 | Emotional Triggers (obese, stressed patients [3]; patient six, 30 mg/day, Month 4, baseline 23): 4 | tail pressure/tail pinch-induced eating (rats): inhibits tail pressure-induced eating

CN(C)CCCN1c2ccccc2CCc2ccccc21 [imipramine hydrochloride]
Mood Scores CES-D (obese, stressed patients [1]; patient five, intramuscular 75 mg/day, Month 1, baseline 36): 34 | Mood Scores CES-D (obese, stressed patients [1]; patient five, intramuscular 75 mg/day, Month 2, baseline 36): 26 | Mood Scores CES-D (obese, stressed patients [1]; patient five, intramuscular 75 mg/day, Month 3, baseline 36): 21 | Mood Scores CES-D (obese, stressed patients [1]; patient five, intramuscular 75 mg/day, Month 4, baseline 36): 20 | Appetite and Cravings (obese, stressed patients [2]; patient five, intramuscular 75 mg/day, Month 1, baseline 15): 12 | Appetite and Cravings (obese, stressed patients [2]; patient five, intramuscular 75 mg/day, Month 2, baseline 15): 7 | Appetite and Cravings (obese, stressed patients [2]; patient five, intramuscular 75 mg/day, Month 3, baseline 15): 3 | Appetite and Cravings (obese, stressed patients [2]; patient five, intramuscular 75 mg/day, Month 4, baseline 15): 6 | Emotional Triggers (obese, stressed patients [3]; patient five, intramuscular 75 mg/day, Month 1, baseline 22): 15 | Emotional Triggers (obese, stressed patients [3]; patient five, intramuscular 75 mg/day, Month 2, baseline 22): 14 | Emotional Triggers (obese, stressed patients [3]; patient five, intramuscular 75 mg/day, Month 3, baseline 22): 6 | Emotional Triggers (obese, stressed patients [3]; patient five, intramuscular 75 mg/day, Month 4, baseline 22): 8 | weight after 4 months ([4]; patient five, intramuscular 75 mg/day, starting weight 74.1 kg): 70.4 kg | weight after 4 months ([4]; patient five, intramuscular 75 mg/day, starting weight 163 pounds): 155 pounds

O=C([O-])[O-].[Li+].[Li+] [lithium carbonate]
Mood Scores CES-D (obese, stressed patients [1]; patient one, 900 mg/day, Month 1, baseline 4): 3 | Mood Scores CES-D (obese, stressed patients [1]; patient one, 900 mg/day, Month 2, baseline 4): 3 | Mood Scores CES-D (obese, stressed patients [1]; patient one, 900 mg/day, Month 3, baseline 4): 2 | Mood Scores CES-D (obese, stressed patients [1]; patient one, 900 mg/day, Month 4, baseline 4): 2 | Appetite and Cravings (obese, stressed patients [2]; patient one, 900 mg/day, Month 1, baseline 14): 6 | Appetite and Cravings (obese, stressed patients [2]; patient one, 900 mg/day, Month 2, baseline 14): 9 | Appetite and Cravings (obese, stressed patients [2]; patient one, 900 mg/day, Month 3, baseline 14): 5 | Appetite and Cravings (obese, stressed patients [2]; patient one, 900 mg/day, Month 4, baseline 14): 3 | Emotional Triggers (obese, stressed patients [3]; patient one, 900 mg/day, Month 1, baseline 15): 16 | Emotional Triggers (obese, stressed patients [3]; patient one, 900 mg/day, Month 2, baseline 15): 10 | Emotional Triggers (obese, stressed patients [3]; patient one, 900 mg/day, Month 3, baseline 15): 6 | Emotional Triggers (obese, stressed patients [3]; patient one, 900 mg/day, Month 4, baseline 15): 7 | weight after 4 months ([4]; patient one, 900 mg/day, starting weight 111.8 kg): 102.3 kg | weight after 4 months ([4]; patient one, 900 mg/day, starting weight 246 pounds): 225 pounds
